{"source": "paper PMC4119689", "about": "“Investigation of the Interaction between Patulin and Human Serum Albumin by a Spectroscopic Method, Atomic Force Microscopy, and Molecular Modeling” (BioMed Research International, 2014)", "target": "T1, human serum albumin (HSA) (Homo sapiens, UniProt P02768)", "T1 construct": "gene ALB", "T1 sequence (P02768 25-609)": "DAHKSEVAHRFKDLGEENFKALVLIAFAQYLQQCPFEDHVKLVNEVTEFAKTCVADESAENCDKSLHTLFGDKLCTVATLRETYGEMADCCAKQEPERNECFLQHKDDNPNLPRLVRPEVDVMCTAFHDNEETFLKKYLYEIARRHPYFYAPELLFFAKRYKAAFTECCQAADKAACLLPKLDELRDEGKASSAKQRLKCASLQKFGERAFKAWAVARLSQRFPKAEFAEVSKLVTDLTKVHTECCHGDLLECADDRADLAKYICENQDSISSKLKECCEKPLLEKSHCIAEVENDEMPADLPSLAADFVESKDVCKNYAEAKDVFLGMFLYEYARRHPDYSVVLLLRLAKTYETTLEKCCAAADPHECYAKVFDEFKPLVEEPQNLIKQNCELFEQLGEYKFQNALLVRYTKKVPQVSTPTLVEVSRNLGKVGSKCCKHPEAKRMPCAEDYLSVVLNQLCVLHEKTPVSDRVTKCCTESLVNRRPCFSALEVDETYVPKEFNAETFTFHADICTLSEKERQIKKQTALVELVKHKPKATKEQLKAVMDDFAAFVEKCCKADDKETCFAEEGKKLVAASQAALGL", "assay": "Trp-214 fluorescence quenching titration (association constant KA at […] K), supported by time-resolved fluorescence, UV-Vis, CD and AFM; quenching described as dynamic", "type": "binding", "details": "read-out: Equation (3) / K A/M^-1 (converted)"}
{"smiles": "O=C1C=C2C(=CCOC2O)O1", "note": "(stereo not shown) [patulin]", "values": [{"measurement": "Kd", "value": 38.5, "unit": "µM"}]}
